Experimental data taken from patent US20020026052A1, “3-cyanoquinolines, 3-cyano-1,6-naphthyridines, and 3-cyano-1,7-naphthyridines as protein kinase inhibitors” (American Home Products Corporation, priority 2000, published 2002).

melting point	Structure (SMILES)
> 250 °C	Cn1ccnc1Sc1ccc(Nc2c(C#N)cnc3cc(-c4ccc(N5CCOCC5)nc4)ccc23)cc1Cl [Example 190, 4-{3-Chloro-4-[(1-methyl-1H-imidazol-2-yl)sulfanyl]anilino}-7-[6-(4-morpholinyl)-3-pyridinyl]-3-quinolinecarbonitrile]
217 to 219 °C	Cc1cc(Nc2c(C#N)cnc3cc(-c4csc(CN5CCOCC5)c4)ccc23)ccc1OCc1ccccn1 [Example 95, 4-[3-Methyl-4-(2-pyridinylmethoxy)anilino]-7-[5-(4-morpholinylmethyl)-3-thienyl]-3-quinolinecarbonitrile]
234 to 236 °C	COc1cc(Nc2c(C#N)cnc3cc(-c4csc(C5OCCO5)c4)ccc23)c(Cl)cc1Cl [Example 42, 4-(2,4-dichloro-5-methoxyanilino)-7-[5-(1,3-dioxolan-2-yl)-3-thienyl]-3-quinoline-carbonitrile]
270 °C (dec.)	N#Cc1cnc2cc(-c3ccc(-c4ccccn4)s3)ccc2c1Nc1ccc(Cl)cc1Cl [Example 18, 4-(2,4-dichloroanilino)-7-[5-(2-pyridinyl)-2-thienyl]-3-quinolinecarbonitrile]
195 to 197 °C	COc1cc(Nc2c(C#N)cnc3cc(-c4ccc(CN5CCOCC5)nc4)ccc23)c(Cl)cc1Cl
251 to 253 °C	N#Cc1cnc2cc(C#CCO)ccc2c1Nc1ccc(Cl)cc1Cl [Example 14, 4-(2,4-Dichloroanilino)-7-(3-hydroxy-1-propynyl)-3-quinolinecarbonitrile]
145 °C	COc1cc(Nc2c(C#N)cnc3cc(-c4ccc(/C=C/CN5CCOCC5)s4)ccc23)c(Cl)cc1Cl [Example 21, 4-(2,4-Dichloro-5-methoxyanilino)-7-{5-[(E)-3-(4-morpholinyl)-1-propenyl]-2-thienyl}-3-quinolinecarbonitrile]
185 to 187 °C	N#Cc1cnc2cc(-c3cncc(CN4CCOCC4)c3)ccc2c1Nc1ccc(Oc2ccccc2)cc1 [Example 48, 7-[5-(4-Morpholinylmethyl)-3-pyridinyl]-4-(4-phenoxyanilino)-3-quinolinecarbonitrile]
228 to 230 °C	N#Cc1cnc2cc(-c3csc(CN4CCOCC4)c3)ccc2c1Nc1ccc(Cc2ccccc2)cc1 [Example 8, 4-(4-Benzylanilino)-7-[5-(4-morpholinylmethyl)-3-thienyl]-3-quinolinecarbonitrile]
233 to 237 °C	COc1cc(Nc2c(C#N)cnc3ccc(-c4csc(C=O)c4)cc23)c(Cl)cc1Cl [Example 45, 4-(2,4-Dichloro-5-methoxyanilino)-6-(5-formyl-3-thienyl)-3-quinolinecarbonitrile]
238 to 240 °C	COc1cc2c(Nc3ccc(Sc4nccn4C)c(Cl)c3)c(C#N)cnc2cc1-c1csc(CN2CCOCC2)c1 [Example 125, 4-{3-chloro-4-[(1-methylimidazol-2-yl)sulfanyl]anilino}-6-methoxy-7-[5-(4-morpholinylmethyl)-3-thienyl]-3-quinolinecarbonitrile]
259 to 262 °C (dec.)	COc1cc(Nc2c(C#N)cnc3cc(-c4csc(C=O)c4)ccc23)c(Cl)cc1Cl [Example 43, 4-(2,4-Dichloro-5-methoxyanilino)-7-(5-formyl-3-thienyl)-3-quinolinecarbonitrile]
246 to 248 °C	CCN1CCN(c2ccc(-c3ccc4c(Nc5ccc(Sc6nccn6C)c(Cl)c5)c(C#N)cnc4c3)nc2)CC1 [Example 108, 4-({3-Chloro-4-[(1-methyl-1H-imidazol-2-yl)sulfanyl]phenyl}amino)-7-[5-(4-ethyl-1-piperazinyl)-2-pyridinyl]-3-quinolinecarbonitrile]
141 to 143 °C	COc1cc(Nc2c(C#N)cnc3cc(-c4cncc(CN5CCOCC5)c4)ccc23)c(Cl)cc1Cl
194 to 196 °C	Cc1cc(Nc2c(C#N)cnc3cc(-c4csc(C5OCCO5)c4)ccc23)ccc1OCc1ccccn1 [Example 94, 7-[5-(1,3-Dioxolan-2-yl)-3-thienyl]-4-[3-methyl-4-(2-pyridinylmethoxy)anilino]-3-quinolinecarbonitrile]
> 260 °C	COc1cc(Nc2c(C#N)cnc3cc(-c4ccc(N5CCOCC5)nc4)ccc23)c(Cl)cc1Cl [Example 185, 4-(2,4-Dichloro-5-methoxyanilino)-7-[6-(4-morpholinyl)-3-pyridinyl]-3-quinolinecarbonitrile]
194 to 196 °C	Cn1ccnc1Sc1ccc(Nc2c(C#N)cnc3cc(-c4ccc(CN5CCC(O)CC5)cn4)ccc23)cc1Cl [Example 172, 4-{3-Chloro-4-[(1-methyl-1H-imidazol-2-yl)sulfanyl]anilino}-7-{5-[(4-hydroxy-1-piperidinyl)methyl]-2-pyridinyl}-3-quinolinecarbonitrile]
198 to 200 °C	COc1cc(Nc2c(C#N)cnc3cc(-c4ccc(CN5CCOCC5)c(CN5CCOCC5)c4)ccc23)c(Cl)cc1Cl [Example 34, 7-[3,4-bis(4-morpholinylmethyl)phenyl]-4-(2,4-dichloro-5-methoxyanilino)-3-quinolinecarbonitrile]

melting point	Structure (SMILES)
206 to 209 °C	Cn1ccnc1Sc1ccc(Nc2c(C#N)cnc3cc(-c4ccc(CN5CCN(CCO)CC5)o4)ccc23)cc1Cl [Example 157, 4-{3-Chloro-4-[(1-methyl-1H-irnidazol-2-yl)sulfanyl]anilino}-7-(5-{[4-(2-hydroxyethyl)-1-piperazinyl]methyl}-2-furyl)-3-quinolinecarbonitrile]
150 to 153 °C	CCN1CCN(Cc2ccnc(-c3ccc4c(Nc5ccc(Sc6nccn6C)c(Cl)c5)c(C#N)cnc4c3)c2)CC1 [Example 205, 4-({3-Chloro-4-[(1-methyl-iH-imidazol-2-yl)sulfanyl]phenyl}amino)-7-{4-[(4-ethyl-1-piperazinyl)methyl]-2-pyridinyl}-3-quinolinecarbonitrile]
230 °C (dec.)	Cn1ccnc1Sc1ccc(Nc2c(C#N)cnc3cc(-c4ccc(N5CCC(N6CCCC6)CC5)nc4)ccc23)cc1Cl [Example 210, 4-({3-Chloro-4-[(1-methyl-H-imidazol-2-yl)sulfanyl]phenyl}amino)-7-{6-[4-(1-pyrrolidinyl)-1-piperidinyl]-3-pyridinyl}-3-quinolinecarbonitrile]
232 to 234 °C	Cn1ccnc1Sc1ccc(Nc2c(C#N)cnc3cc(-c4cccc(CN5CCOCC5)n4)ccc23)cc1Cl [Example 199, 4-{3-Chloro-4-[(1-methyl-1H-imidazol-2-yl)sulfanyl]anilino}-7-[6-(4-morpholinylmethyl)-2-pyridinyl]-3-quinolinecarbonitrile]
212 to 215 °C	COc1cc(Nc2c(C#N)cnc3cc(-c4ccc(CN5CCN(C)CC5)cn4)ccc23)c(Cl)cc1Cl
220 to 222 °C	Cn1ccnc1Sc1ccc(Nc2c(C#N)cnc3cc(-c4ccc(CN5CCSCC5)cn4)ccc23)cc1Cl [Example 219]
254 to 256 °C	CCN1CCN(c2ccc(-c3ccc4c(Nc5ccc(Sc6nccn6C)c(Cl)c5)c(C#N)cnc4c3)cn2)CC1 [Example 195, 4-{3-Chloro-4-[(1-methyl-1H-imidazol-2-yl)sulfanyl]anilino}-7-[6-(4-ethyl-1-piperazinyl)-3-pyridinyl]-3-quinolinecarbonitrile]
253 to 255 °C	CCOC(=O)C1CCN(c2ccc(-c3ccc4c(Nc5ccc(Sc6nccn6C)c(Cl)c5)c(C#N)cnc4c3)cn2)CC1 [Example 213, Ethyl 1-{5-[4-({3-chloro-4-[(1-methyl-iH-imidazol-2-yl)sulfanyl]phenyl}amino)-3-cyano-7-quinolinyl]-2-pyridinyl}-4-piperidinecarboxylate]
145 to 147 °C	Cn1ccnc1Sc1ccc(Nc2c(C#N)cnc3cc(-c4ccc(CN5CCN(CCO)CC5)s4)ccc23)cc1Cl [Example 161, 4-{3-Chloro-4-[(1-methyl-1H-imidazol-2-yl)sulfanyl]anilino}-7-(5-{[4-(2-hydroxyethyl)-1-piperazinyl]methyl}-2-thienyl)-3-quinolinecarbonitrile]
125 to 130 °C	CCN1CCN(Cc2ccc(-c3ccc4c(Nc5ccc(Sc6nccn6C)c(Cl)c5)c(C#N)cnc4c3)nc2)CC1 [Example 171, 4-{3-Chloro-4-[(1-methyl-1H-imidazol-2-yl)sulfanyl]anilino}-7-{5-[(4-ethyl-1-piperazinyl)methyl]-2-pyridinyl}-3-quinolinecarbonitrile]
147 to 149 °C	Cn1ccnc1Sc1ccc(Nc2c(C#N)cnc3cc(-c4ccc(CN5CCC(O)CC5)s4)ccc23)cc1Cl [Example 159, 4-{3-Chloro-4-[(1-methyl-1H-imidazol-2-yl)sulfanyl]anilino}-7-{5-[(4-hydroxy-1-piperidinyl)methyl]-2-thienyl}-3-quinolinecarbonitrile]
181 to 183 °C	COc1cc(Nc2c(C#N)cnc3cc(-c4cccc(CN5CCOCC5)n4)ccc23)c(Cl)cc1Cl
187 to 190 °C	CCN1CCN(Cc2cccnc2-c2ccc3c(Nc4ccc(Sc5nccn5C)c(Cl)c4)c(C#N)cnc3c2)CC1 [Example 208, 4-({3-Chloro-4-[(1-methyl-1H-imldazol-2-yl)sulfanyl]phenyl}amino)-7-{3-[(4-ethyl-1-piperazinyl)methyl]-2-pyridinyl}-3-quinolinecarbonitrile]
180 to 182 °C	COc1cc(Nc2c(C#N)cnc3cc(-c4cc(CN5CCOCC5)ccn4)ccc23)c(Cl)cc1Cl
224 to 226 °C	COCCN(C)c1ccc(-c2ccc3c(Nc4ccc(Sc5nccn5C)c(Cl)c4)c(C#N)cnc3c2)cn1 [Example 212, 4-({3-Chloro-4-[(1-methyl-1H-imidazol-2-yl)sulfanyl]phenyl}amino)-7-{6-[(2-methoxyethyl) (methyl)amino]-3-pyridinyl}-3-quinolinecarbonitrile]
239 to 240 °C	COc1cc(Nc2c(C#N)cnc3cc(-c4ccc(Cn5ccnn5)cc4)ccc23)c(Cl)cc1Cl [Example 103, 4-[(2,4-Dichloro-5-methoxyphenyl)amino]-7-[4-(1H-1,2,3-triazol-1-ylmethyl)phenyl]-3-quinolinecarbonitrile]
228 °C (dec.)	CN(CCO)c1ccc(-c2ccc3c(Nc4ccc(Sc5nccn5C)c(Cl)c4)c(C#N)cnc3c2)cn1 [Example 216, 4-({3-Chloro-4-[(1-methyl-1H-imidazol-2-yl)sulfanyl]phenyl}amino)-7-{6-[(2-hydroxyethyl) (methyl)amino]-3-pyridinyl}-3-quinolinecarbonitrile]
